In PubChem BioAssay (NCI):
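96-well plates; 48 h exposure; 5 concentrations. Endpoints by linear interpolation between flanking doses. Not reached: highest tested concentration assigned. Here, GI50 denotes the concentration required for 50% inhibition of growth. TGI is the concentration that stops growth completely.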

Key:
Test in all cases: inhibition of tumour cell growth, NCI panel, 48 h
OVCAR-4 ovarian = system: OVCAR-4 ovarian
SK-OV-3 ovarian = system: SK-OV-3 ovarian
HL-60(TB) leukemia = system: HL-60(TB) leukemia
UO-31 renal = system: UO-31 renal
NCI-H23 lung = system: NCI-H23 lung
U251 CNS = system: U251 CNS
HT29 colon = system: HT29 colon
NCI-H226 lung = system: NCI-H226 lung
T-47D breast = system: T-47D breast
COLO 205 colon = system: COLO 205 colon

Molecule	GI50 (OVCAR-4 ovarian)	TGI (OVCAR-4 ovarian)	GI50 (SK-OV-3 ovarian)	TGI (SK-OV-3 ovarian)	GI50 (HL-60(TB) leukemia)	GI50 (UO-31 renal)	TGI (UO-31 renal)	GI50 (NCI-H23 lung)	TGI (NCI-H23 lung)	GI50 (U251 CNS)	TGI (U251 CNS)	GI50 (HT29 colon)	TGI (HT29 colon)	GI50 (NCI-H226 lung)	TGI (NCI-H226 lung)	GI50 (T-47D breast)	TGI (T-47D breast)	GI50 (COLO 205 colon)	TGI (COLO 205 colon)	TGI (HL-60(TB) leukemia)
Cc1c(Cl)cccc1NC(=O)c1sc2nc3c(cc2c1N)CCCC3	0.827 µM	> 100 µM	0.444 µM	> 100 µM	0.305 µM	3.03 µM	> 100 µM	9.15 µM	> 100 µM	0.504 µM	> 100 µM	0.369 µM	> 100 µM	> 100 µM	> 100 µM	0.402 µM	> 100 µM	0.719 µM	> 100 µM	
COc1cccc(NC2=C(Cl)C(=O)N(Cc3ccc(Cl)cc3)C2=O)c1	9.69 µM	> 71.5 µM	8.09 µM	60.6 µM	3.15 µM	7.88 µM	31.7 µM	2.84 µM	9.81 µM	1.24 µM	> 34.6 µM	2.72 µM	> 100 µM	1.27 µM	6.86 µM	10.9 µM	> 100 µM	4.96 µM	39.8 µM	60.8 µM
COC(=O)/C(=N\Nc1nnc(C)n1N)C(C#N)c1ccccc1 (centres undefined)		> 67.4 µM		> 100 µM			> 100 µM		> 56.1 µM		> 100 µM		> 100 µM		> 100 µM		> 100 µM		> 100 µM	> 100 µM
COc1cc(/C=N/NC(=O)c2ccccc2Nc2cccc(C(F)(F)F)c2)cc(OC)c1OC	3.37 µM	15.2 µM	2.92 µM	8.44 µM	2.01 µM	6.11 µM	21.5 µM	6.37 µM	23.1 µM	2.28 µM	6.03 µM	1.67 µM	10.8 µM	7.45 µM	25.2 µM	3.33 µM	13.5 µM	2.72 µM	9.87 µM	4.73 µM
N#C/C(=C\c1ccc2[nH]ccc2c1)C(=O)c1ccc(O)c(O)c1		> 100 µM		> 100 µM			> 100 µM		> 100 µM		> 100 µM		> 100 µM		> 100 µM		> 100 µM		> 100 µM	> 95.1 µM
H-QIYKKYRTWYRKAWKVLGKV-NH2	9.03 µM	50.5 µM	11.3 µM	30.5 µM	2.84 µM	19.2 µM	39.5 µM	3.96 µM	30.1 µM	12 µM	> 100 µM	20.8 µM	> 100 µM	12.4 µM	58.7 µM	2.06 µM	5.2 µM	4.3 µM	80.7 µM	8.76 µM
CNC(c1ccncc1)C(NC)c1ccncc1 (centres undefined)		> 100 µM		> 100 µM			> 100 µM		> 100 µM		> 100 µM		> 100 µM		> 100 µM		> 100 µM		> 100 µM	> 100 µM
